Measured values as given in PubChem BioAssay (NCI).
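Grown in 96-well plates, cells were treated for 48 hours with each compound at five concentrations. Insufficient inhibition: endpoint recorded as highest concentration tested. The concentration for 50% growth inhibition is given as GI50. TGI is the concentration that stops growth completely.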

Key:
Assay in all cases: DTP human tumour cell line panel, 48 h
786-0 renal = tested on: 786-0 renal
A498 renal = tested on: A498 renal
A549 NSCLC = tested on: A549 NSCLC
ACHN renal = tested on: ACHN renal
BT-549 breast = tested on: BT-549 breast
CAKI-1 renal = tested on: CAKI-1 renal
CCRF-CEM leukemia = tested on: CCRF-CEM leukemia
COLO 205 colon = tested on: COLO 205 colon
DU-145 prostate = tested on: DU-145 prostate
EKVX NSCLC = tested on: EKVX NSCLC
HCC-2998 colon = tested on: HCC-2998 colon
HCT-116 colon = tested on: HCT-116 colon
HCT-15 colon = tested on: HCT-15 colon
HL-60(TB) leukemia = tested on: HL-60(TB) leukemia
HOP-62 NSCLC = tested on: HOP-62 NSCLC
HOP-92 NSCLC = tested on: HOP-92 NSCLC
HS 578T breast = tested on: HS 578T breast
HT29 colon = tested on: HT29 colon
IGROV1 ovarian = tested on: IGROV1 ovarian
K-562 leukemia = tested on: K-562 leukemia
KM12 colon = tested on: KM12 colon
LOX IMVI melanoma = tested on: LOX IMVI melanoma
M14 melanoma = tested on: M14 melanoma
MALME-3M melanoma = tested on: MALME-3M melanoma
MCF7 breast = tested on: MCF7 breast
MDA-MB-231 breast = tested on: MDA-MB-231 breast
MDA-MB-435 = tested on: MDA-MB-435
MOLT-4 leukemia = tested on: MOLT-4 leukemia
NCI-H226 lung = tested on: NCI-H226 lung
NCI-H23 lung = tested on: NCI-H23 lung
NCI-H460 lung = tested on: NCI-H460 lung
NCI-H522 lung = tested on: NCI-H522 lung
NCI/ADR-RES ovarian = tested on: NCI/ADR-RES ovarian
OVCAR-3 ovarian = tested on: OVCAR-3 ovarian
OVCAR-4 ovarian = tested on: OVCAR-4 ovarian
OVCAR-5 ovarian = tested on: OVCAR-5 ovarian
OVCAR-8 ovarian = tested on: OVCAR-8 ovarian
PC-3 prostate = tested on: PC-3 prostate
RPMI-8226 leukemia = tested on: RPMI-8226 leukemia
RXF 393 renal = tested on: RXF 393 renal
SF-268 CNS = tested on: SF-268 CNS
SF-295 CNS = tested on: SF-295 CNS
SF-539 CNS = tested on: SF-539 CNS
SK-MEL-2 melanoma = tested on: SK-MEL-2 melanoma
SK-MEL-28 melanoma = tested on: SK-MEL-28 melanoma
SK-MEL-5 melanoma = tested on: SK-MEL-5 melanoma
SK-OV-3 ovarian = tested on: SK-OV-3 ovarian
SN12C renal = tested on: SN12C renal
SNB-19 CNS = tested on: SNB-19 CNS
SNB-75 CNS = tested on: SNB-75 CNS
SR leukemia = tested on: SR leukemia
SW-620 colon = tested on: SW-620 colon
T-47D breast = tested on: T-47D breast
TK-10 renal = tested on: TK-10 renal
U251 CNS = tested on: U251 CNS
UACC-257 melanoma = tested on: UACC-257 melanoma
UACC-62 melanoma = tested on: UACC-62 melanoma
UO-31 renal = tested on: UO-31 renal
MDA-N = tested on: MDA-N

SMILES: CCOc1nc(-c2ccccc2)cc2c(O)c(C(=O)N/N=C/c3ccc(O)cc3O)[nH]c(=O)c12
- GI50 (786-0 renal): 2.31 µM
- TGI (786-0 renal): 8.34 µM
- GI50 (A498 renal): 3.64 µM
- TGI (A498 renal): 28.5 µM
- GI50 (A549 NSCLC): 6.5 µM
- TGI (A549 NSCLC): > 100 µM
- GI50 (ACHN renal): 1.79 µM
- TGI (ACHN renal): > 35.5 µM
- GI50 (BT-549 breast): 1.65 µM
- TGI (BT-549 breast): > 26.3 µM
- GI50 (CAKI-1 renal): 1.91 µM
- TGI (CAKI-1 renal): > 29.5 µM
- GI50 (CCRF-CEM leukemia): 0.357 µM
- TGI (CCRF-CEM leukemia): > 23.2 µM
- GI50 (COLO 205 colon): 0.751 µM
- TGI (COLO 205 colon): 12.6 µM
- GI50 (DU-145 prostate): 2.61 µM
- TGI (DU-145 prostate): 25.5 µM
- GI50 (EKVX NSCLC): 2.5 µM
- TGI (EKVX NSCLC): > 100 µM
- GI50 (HCC-2998 colon): 1.95 µM
- TGI (HCC-2998 colon): > 82.3 µM
- GI50 (HCT-116 colon): 0.66 µM
- TGI (HCT-116 colon): 17.5 µM
- GI50 (HCT-15 colon): 1.5 µM
- TGI (HCT-15 colon): > 100 µM
- GI50 (HL-60(TB) leukemia): 1.44 µM
- TGI (HL-60(TB) leukemia): 13.4 µM
- GI50 (HOP-62 NSCLC): 1.65 µM
- TGI (HOP-62 NSCLC): > 52.1 µM
- GI50 (HOP-92 NSCLC): 4.42 µM
- TGI (HOP-92 NSCLC): > 100 µM
- GI50 (HS 578T breast): 14 µM
- TGI (HS 578T breast): > 100 µM
- GI50 (HT29 colon): 5.41 µM
- TGI (HT29 colon): > 100 µM
- GI50 (IGROV1 ovarian): 4.08 µM
- TGI (IGROV1 ovarian): 59.5 µM
- GI50 (K-562 leukemia): 1.62 µM
- TGI (K-562 leukemia): > 100 µM
- GI50 (KM12 colon): 5.73 µM
- TGI (KM12 colon): > 100 µM
- GI50 (LOX IMVI melanoma): 0.686 µM
- TGI (LOX IMVI melanoma): 9.11 µM
- GI50 (M14 melanoma): 1.45 µM
- TGI (M14 melanoma): 7.16 µM
- GI50 (MALME-3M melanoma): 2.86 µM
- TGI (MALME-3M melanoma): > 40.5 µM
- GI50 (MCF7 breast): 2.17 µM
- TGI (MCF7 breast): > 32 µM
- GI50 (MDA-MB-231 breast): 4.12 µM
- TGI (MDA-MB-231 breast): > 93 µM
- GI50 (MDA-MB-435): 4.05 µM
- TGI (MDA-MB-435): > 100 µM
- GI50 (MOLT-4 leukemia): 0.22 µM
- TGI (MOLT-4 leukemia): > 94.4 µM
- GI50 (NCI-H226 lung): 1.49 µM
- TGI (NCI-H226 lung): 8.15 µM
- GI50 (NCI-H23 lung): 4.66 µM
- TGI (NCI-H23 lung): > 82.8 µM
- GI50 (NCI-H460 lung): 3.6 µM
- TGI (NCI-H460 lung): 27.6 µM
- GI50 (NCI-H522 lung): 1.29 µM
- TGI (NCI-H522 lung): 23.5 µM
- GI50 (NCI/ADR-RES ovarian): 1.77 µM
- TGI (NCI/ADR-RES ovarian): > 31.3 µM
- GI50 (OVCAR-3 ovarian): 0.364 µM
- TGI (OVCAR-3 ovarian): 10.6 µM
- GI50 (OVCAR-4 ovarian): 0.407 µM
- TGI (OVCAR-4 ovarian): > 40.8 µM
- GI50 (OVCAR-5 ovarian): 7.06 µM
- TGI (OVCAR-5 ovarian): > 100 µM
- GI50 (OVCAR-8 ovarian): 0.965 µM
- TGI (OVCAR-8 ovarian): > 37.1 µM
- GI50 (PC-3 prostate): 5.55 µM
- TGI (PC-3 prostate): > 100 µM
- GI50 (RPMI-8226 leukemia): 5.62 µM
- TGI (RPMI-8226 leukemia): 43 µM
- GI50 (RXF 393 renal): 1.53 µM
- TGI (RXF 393 renal): 11.9 µM
- GI50 (SF-268 CNS): 0.766 µM
- TGI (SF-268 CNS): 16.4 µM
- GI50 (SF-295 CNS): 4.88 µM
- TGI (SF-295 CNS): > 100 µM
- GI50 (SF-539 CNS): 0.904 µM
- TGI (SF-539 CNS): 6.06 µM
- GI50 (SK-MEL-2 melanoma): 5.1 µM
- TGI (SK-MEL-2 melanoma): 88.8 µM
- GI50 (SK-MEL-28 melanoma): 2.32 µM
- TGI (SK-MEL-28 melanoma): > 100 µM
- GI50 (SK-MEL-5 melanoma): 1.48 µM
- TGI (SK-MEL-5 melanoma): > 57.6 µM
- GI50 (SK-OV-3 ovarian): 1.26 µM
- TGI (SK-OV-3 ovarian): > 24.7 µM
- GI50 (SN12C renal): 2.43 µM
- TGI (SN12C renal): > 39 µM
- GI50 (SNB-19 CNS): 1.42 µM
- TGI (SNB-19 CNS): > 46.8 µM
- GI50 (SNB-75 CNS): 3.16 µM
- TGI (SNB-75 CNS): > 42 µM
- TGI (SR leukemia): > 27.5 µM
- GI50 (SW-620 colon): 1.88 µM
- TGI (SW-620 colon): > 100 µM
- GI50 (T-47D breast): 1.64 µM
- TGI (T-47D breast): 50.1 µM
- GI50 (TK-10 renal): 6.47 µM
- TGI (TK-10 renal): > 100 µM
- GI50 (U251 CNS): 0.789 µM
- TGI (U251 CNS): > 100 µM
- GI50 (UACC-257 melanoma): 2.93 µM
- TGI (UACC-257 melanoma): 17.3 µM
- GI50 (UACC-62 melanoma): 1.17 µM
- GI50 (UO-31 renal): 1.52 µM
- TGI (UO-31 renal): 16 µM

SMILES: O=c1c2cc([N+](=O)[O-])ccc2[nH]n1Cc1ccccn1
- TGI (786-0 renal): > 100 µM
- TGI (A498 renal): > 100 µM
- TGI (A549 NSCLC): > 100 µM
- TGI (ACHN renal): > 100 µM
- TGI (CAKI-1 renal): > 100 µM
- TGI (CCRF-CEM leukemia): > 100 µM
- TGI (COLO 205 colon): > 100 µM
- TGI (DU-145 prostate): > 100 µM
- TGI (EKVX NSCLC): > 100 µM
- TGI (HCC-2998 colon): > 100 µM
- TGI (HCT-116 colon): > 100 µM
- TGI (HCT-15 colon): > 100 µM
- TGI (HL-60(TB) leukemia): > 100 µM
- TGI (HOP-62 NSCLC): > 100 µM
- TGI (HOP-92 NSCLC): > 100 µM
- TGI (HS 578T breast): > 100 µM
- TGI (HT29 colon): > 100 µM
- TGI (IGROV1 ovarian): > 100 µM
- TGI (K-562 leukemia): > 100 µM
- TGI (KM12 colon): > 100 µM
- TGI (LOX IMVI melanoma): > 100 µM
- TGI (M14 melanoma): > 100 µM
- TGI (MALME-3M melanoma): > 100 µM
- TGI (MDA-MB-231 breast): > 100 µM
- TGI (MDA-MB-435): > 100 µM
- TGI (MDA-N): > 100 µM
- TGI (MOLT-4 leukemia): > 100 µM
- TGI (NCI-H226 lung): > 100 µM
- TGI (NCI-H23 lung): > 100 µM
- TGI (NCI-H460 lung): > 100 µM
- TGI (NCI-H522 lung): > 100 µM
- TGI (NCI/ADR-RES ovarian): > 100 µM
- TGI (OVCAR-3 ovarian): > 100 µM
- TGI (OVCAR-4 ovarian): > 100 µM
- TGI (OVCAR-5 ovarian): > 100 µM
- TGI (OVCAR-8 ovarian): > 100 µM
- TGI (PC-3 prostate): > 100 µM
- TGI (RPMI-8226 leukemia): > 100 µM
- TGI (RXF 393 renal): > 100 µM
- TGI (SF-268 CNS): > 100 µM
- TGI (SF-295 CNS): > 100 µM
- TGI (SF-539 CNS): > 100 µM
- TGI (SK-MEL-28 melanoma): > 100 µM
- TGI (SK-MEL-5 melanoma): > 100 µM
- TGI (SN12C renal): > 100 µM
- TGI (SNB-19 CNS): > 100 µM
- TGI (SNB-75 CNS): > 100 µM
- TGI (SR leukemia): > 100 µM
- TGI (SW-620 colon): > 100 µM
- TGI (TK-10 renal): > 100 µM
- TGI (U251 CNS): > 100 µM
- TGI (UACC-257 melanoma): > 100 µM
- TGI (UACC-62 melanoma): > 100 µM
- TGI (UO-31 renal): > 100 µM
